Patent US7915293B2, “Ubiquitin ligase inhibitors” (Rigel Pharmaceuticals, Inc., priority 2003, dated 2011)

biological target: E3 (His-APC11/APC2-"APC") (Homo sapiens, UniProt Q9NYG5+Q9UJX6); assay: Plate-based E3 ligase assay (APC FLAG), auto-ubiquitination; type: biochemical; design: key: “+” indicates that the compound exibits inhibitory activity; “−” indicates that low or no inhibitory activity was observed; conditions: 2 concentrations tested
Method: E3 (His-APC11/APC2-“APC”) auto-ubiquitination was measured as described in U.S. patent application Ser. No. 09/826,312 (Publication No. US-2002-0042083-A1), which is incorporated herein in its entirety. Details of the protocol are described below. Activity in the presence of the compound was determined relative to a parallel control in which only DMSO was added. Values of the IC50 were typically determined using 6 or 8 different concentrations of the compound, although as few as 2 concentrations may be used to approximate the IC50 value.
Nickel-coated 96-well plates (Pierce 15242) were blocked for 1 hour with 100 μl of blocking buffer at room temperature. The plates were washed 4 times with 225 μl of 1×PBS and 80 μl of the reaction buffer were added that contained 100 ng/well of Flag-ubiquitin. To this, 10 μl of the test compound diluted in DMSO were added. After the test compound was added, 10 μl of E1 (human), E2 (Ubch5c), and APC in Protein Buffer was added to obtain a final concentration of 5 ng/well of E1, 20 ng/well of E2 and 100 ng/well of APC. The plate were shaken for 10 minutes and incubated at room temperature for 1 hour. After incubation, the plates were washed 4 times with 225 μl of 1×PBS and 100 μl/well of Antibody Mix were added to each well. The plates were incubate at room temperature for another hour after which they were washed 4 times with 225 μl of 1×PBS and 100 μl/well of Lumino substrate were added to each well. The luminescence was measured by using a BMG luminescence microplate reader.
To prepare the Blocking Buffer (1 liter; 1% Casein in 1×PBS), 10 grams of Casein (Hammersten Grade Casein from Gallard-Schlesinger Inc. #440203) were placed into 1 liter of 1×PBS, stirred on a hot plate and kept between 50-60° C. for an hour. The buffer was allowed to cool to room temperature and then filtered using a Buchner Funnel (Buchner filter funnel 83 mm 30310-109) and Whatman filter paper (Whatman Grade No. 1 Filter paper 28450-070). It was stored at 4° C. until used.
The reaction buffer consisted of 62.5 mM Tris pH 7.6 (Trizma Base—Sigma T-8524), 3 mM MgCl2 (Magnesium Chloride—Sigma M-2393), 1 mM DTT (Sigma D-9779), 2.5 mM ATP (Roche Boehringer Mann Corp. 635-316), 100 ng/well of Flag-ubiquitin, 0.1% BSA (Sigma A-7906), and 0.05% Tween-20 (Sigma P-7949).
The Protein Buffer consisted of 20 mM Tris pH 7.6, 10% glycerol (Sigma G-5516) and 1 mM DTT.
The antibody mix consisted of 0.25% BSA (Sigma A-7906) in 1×PBS, 1/50,000 anti-Flag (Sigma F-3165), 1/100,000 of anti-Mouse IgG-HRP (Jackson Immunoresearch #115-035-146).
The substrate mix consisted of SuperSignal Substrate from Pierce (catalog number 37070ZZ) and was prepared by mixing 100 ml of the peroxide solution, 100 ml of the enhancer solution and 100 ml of Milli-Q® water.

Sequence of E3 (His-APC11/APC2-"APC") (Q9NYG5 whole entry): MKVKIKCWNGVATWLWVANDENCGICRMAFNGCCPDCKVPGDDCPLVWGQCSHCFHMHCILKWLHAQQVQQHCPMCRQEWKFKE
Sequence of E3 (His-APC11/APC2-"APC") (Q9UJX6 whole entry): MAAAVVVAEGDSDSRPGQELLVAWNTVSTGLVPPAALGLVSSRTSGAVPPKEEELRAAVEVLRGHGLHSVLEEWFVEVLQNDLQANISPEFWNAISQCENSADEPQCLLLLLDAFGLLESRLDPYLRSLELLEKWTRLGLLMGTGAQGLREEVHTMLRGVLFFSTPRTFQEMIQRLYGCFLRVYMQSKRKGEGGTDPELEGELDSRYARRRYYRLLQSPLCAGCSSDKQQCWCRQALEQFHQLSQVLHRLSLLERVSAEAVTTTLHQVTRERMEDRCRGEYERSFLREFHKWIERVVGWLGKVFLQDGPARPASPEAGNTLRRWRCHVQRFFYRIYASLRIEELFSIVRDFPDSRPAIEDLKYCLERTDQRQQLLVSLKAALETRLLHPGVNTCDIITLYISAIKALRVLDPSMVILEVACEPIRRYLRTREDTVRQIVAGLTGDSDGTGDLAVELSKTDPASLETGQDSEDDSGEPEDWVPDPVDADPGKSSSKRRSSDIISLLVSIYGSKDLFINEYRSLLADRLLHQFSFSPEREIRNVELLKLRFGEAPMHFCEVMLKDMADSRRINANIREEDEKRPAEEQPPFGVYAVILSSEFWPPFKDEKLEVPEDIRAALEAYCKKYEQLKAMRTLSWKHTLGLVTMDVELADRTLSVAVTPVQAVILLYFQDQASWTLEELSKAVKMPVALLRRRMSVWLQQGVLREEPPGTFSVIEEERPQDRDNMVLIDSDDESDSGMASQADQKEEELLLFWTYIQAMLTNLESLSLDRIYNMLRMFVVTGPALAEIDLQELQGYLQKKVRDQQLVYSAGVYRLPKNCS

Q: With `O=S(=O)(Nc1cccc(Br)c1)c1ccc(Oc2ccc(F)cc2)cc1` [Example 187, N-(3-bromophenyl)-4-(4-fluorophenoxy) benzenesulfonamide] as the compound, how does the “APC Flag (2 pt)” value read?
A: − (2 pt)

Q: `O=S(=O)(Nc1cccc(Br)c1)c1ccc(Oc2ccc(Cl)cc2)cc1` [Example 196, N-(3-bromophenyl)-4-(4-chlorophenoxy) benzenesulfonamide] was tested. Which “APC Flag (2 pt)” value did it give?
A: − (2 pt)

Q: Which “APC Flag (2 pt)” value does the source give for `O=S(=O)(Nc1ccc(F)c(Cl)c1)c1ccc(Oc2ccc(Cl)cc2)cc1` [Example 195, N-(3-chloro-4-fluorophenyl)-4-(4-chloro-phenoxy)benzenesulfonamide] here?
A: − (2 pt)

Q: `CN(c1cc(Cl)cc(Cl)c1)S(=O)(=O)c1cc(Cl)c(Oc2ccc([N+](=O)[O-])cc2Cl)c(Cl)c1` [Example 190, 3,5-dichloro-4-(2-chloro-4-nitrophenoxy)-N-(3,5-dichlorophenyl)-N-methylbenzene-sulfonamide] was tested. Which “APC Flag (2 pt)” value did it give?
A: − (2 pt)

Q: Which “APC Flag (2 pt)” value does the source give for `CC(C)c1ccccc1NS(=O)(=O)c1cc(Cl)c(Oc2ccc([N+](=O)[O-])cc2Cl)c(Cl)c1` [Example 227, 3,5-dichloro-4-(2-chloro-4-nitrophenoxy)-N-(2-isopropylphenyl)benzenesulfonamide] here?
A: − (2 pt)

same assay, conditions: 8 concentrations tested

Q: With `O=[N+]([O-])c1ccc(Oc2c(Cl)cc(S(=O)(=O)NCc3ccc(Br)cc3)cc2Cl)c(Cl)c1` [Compound 128, N-(4-bromobenzyl)-3,5-dichloro-4-(2-chloro-4-nitrophenoxy)benzenesulfonamide] as the compound, how does the “APC Flag 8 pt” value read?
A: −

Q: How did the “APC Flag 8 pt” value turn out when `O=[N+]([O-])c1ccc(Oc2c(Cl)cc(S(=O)(=O)Nc3cc(F)cc(F)c3)cc2Cl)c(Cl)c1` [Example 177, 3,5-dichloro-4-(2-chloro-4-nitrophenoxy)-N-(3,5-difluorophenyl)benzenesulfonamide] was run?
A: +

Q: With `N=C(Nc1nc2ccccc2[nH]1)NS(=O)(=O)c1cc(Cl)c(Oc2ccc([N+](=O)[O-])cc2Cl)c(Cl)c1` [Example 225, N-[(1H-benzimidazol-2-ylamino)(imino)methyl]-3,5-dichloro-4-(2-chloro-4-nitro-phenoxy)benzenesulfonamide] as the compound, how does the “APC Flag 8 pt” value read?
A: +

Q: For `O=[N+]([O-])c1ccc(Oc2c(Cl)cc(S(=O)(=O)NC3CCNCC3)cc2Cl)c(Cl)c1` [Example 130, 3,5-dichloro-4-(2-chloro-4-nitrophenoxy)-N-piperidin-4-ylbenzenesulfonamide], which “APC Flag 8 pt” value is on record?
A: −

Q: Which “APC Flag 8 pt” value does the source give for `O=[N+]([O-])c1ccc(Oc2c(Cl)cc(S(=O)(=O)NC(=S)Nc3cccnc3)cc2Cl)c(Cl)c1` [Example 158, 3,5-dichloro-4-(2-chloro-4-nitrophenoxy)-N-[(pyridin-3-ylamino)carbonothioyl] benzenesulfonamide] here?
A: −

Q: How did the “APC Flag 8 pt” value turn out when `O=C(NCC1CC1)c1cccc(NS(=O)(=O)c2cc(Cl)c(Oc3ccc([N+](=O)[O-])cc3Cl)c(Cl)c2)c1` [Compound 151, N-(cyclopropylmethyl)-3-({[3,5-dichloro-4-(2-chloro-4-nitrophenoxy)phenyl]sulfonyl}amino)benzamide] was run?
A: +

Q: Which “APC Flag 8 pt” value does the source give for `O=C1CCC(CCCNS(=O)(=O)c2cc(Cl)c(Oc3ccc([N+](=O)[O-])cc3Cl)c(Cl)c2)N1` (centres unmarked) [Example 122, 3,5-dichloro-4-(2-chloro-4-nitrophenoxy)-N-[3-(5-oxopyrrolidin-2-yl)propyl] benzenesulfonamide] here?
A: +

Q: `N=C(Nc1ccc(Cl)cc1)NS(=O)(=O)c1cc(Cl)c(Oc2ccc([N+](=O)[O-])cc2Cl)c(Cl)c1` [Example 211, 3,5-dichloro-4-(2-chloro-4-nitrophenoxy)-N-[[(4-chlorophenyl)amino](imino)methyl] benzenesulfonamide] was tested. Which “APC Flag 8 pt” value did it give?
A: +

Q: How did the “APC Flag 8 pt” value turn out when `O=[N+]([O-])c1ccc(Oc2c(Cl)cc(S(=O)(=O)Nc3ccc(F)c(F)c3)cc2Cl)c(Cl)c1` [Example 197, 3,5-dichloro-4-(2-chloro-4-nitrophenoxy)-N-(3,4-difluorophenyl)benzenesulfonamide] was run?
A: +

Q: Which “APC Flag 8 pt” value does the source give for `O=C(Nc1cc(C(F)(F)F)ccc1Cl)N1CCC(Oc2ncccn2)CC1` [Example 309, N-(2-chloro-5-(trifluoromethyl)phenyl)-4-(pyrimidin-2-yloxy)piperidine-1-carboxamide] here?
A: −

Q: With `Cc1c(Cl)cccc1NS(=O)(=O)c1ccc(Oc2c(Cl)cccc2[N+](=O)[O-])cc1` [Example 184, N-(3-chloro-2-methylphenyl)-4-(2-chloro-6-nitrophenoxy)benzenesulfonamide] as the compound, how does the “APC Flag 8 pt” value read?
A: −

Q: With `O=[N+]([O-])c1ccc(Oc2c(Cl)cc(S(=O)(=O)NCC3CC3)cc2Cl)c(Cl)c1` [Compound 120, N-(Cyclopropylmethyl)-3,5-Dichloro-4-(2-Chloro-4-Nitrophenoxy) Benzenesulfonamide] as the compound, how does the “APC Flag 8 pt” value read?
A: +

Q: With `O=C(NCC1CC1)[C@@H]1CCCN1S(=O)(=O)c1cc(Cl)c(Oc2ccc([N+](=O)[O-])cc2Cl)c(Cl)c1` [Compound 139, N-(cyclopropylmethyl)-1-{[3,5-dichloro-4-(2-chloro-4-nitrophenoxy)phenyl]sulfonyl}prolinamide] as the compound, how does the “APC Flag 8 pt” value read?
A: −

Q: With `O=[N+]([O-])c1ccc(Oc2c(Cl)cc(S(=O)(=O)NCCCOc3cc(Cl)cc(Cl)c3)cc2Cl)c(Cl)c1` [Example 126, 3,5-dichloro-4-(2-chloro-4-nitrophenoxy)-N-[3-(3,5-dichlorophenoxy)propyl] benzenesulfonamide] as the compound, how does the “APC Flag 8 pt” value read?
A: −

Q: `O=[N+]([O-])c1ccc(Oc2c(Cl)cc(S(=O)(=O)NCc3ccc(Cl)cc3)cc2Cl)c(Cl)c1` [Example 125, 3,5-dichloro-N-(4-chlorobenzyl)-4-(2-chloro-4-nitrophenoxy)benzenesulfonamide] was tested. Which “APC Flag 8 pt” value did it give?
A: −

Q: For `N=C(N)NCCC[C@H](NS(=O)(=O)c1cc(Cl)c(Oc2ccc([N+](=O)[O-])cc2Cl)c(Cl)c1)C(N)=O` [Example 141, N^2-{[3,5-dichloro-4-(2-chloro-4-nitrophenoxy)phenyl]sulfonyl}argininamide], which “APC Flag 8 pt” value is on record?
A: −

Q: For `O=[N+]([O-])c1ccc(Oc2c(Cl)cc(S(=O)(=O)NCCN3CCOCC3)cc2Cl)c(Cl)c1` [Example 132, 3,5-dichloro-4-(2-chloro-4-nitrophenoxy)-N-(2-morpholin-4-ylethyl)benzenesulfonamide], which “APC Flag 8 pt” value is on record?
A: −

Q: Which “APC Flag 8 pt” value does the source give for `N=C(NS(=O)(=O)c1cc(Cl)c(Oc2ccc([N+](=O)[O-])cc2Cl)c(Cl)c1)c1ccccc1` [Example 212, N-{[3,5-dichloro-4-(2-chloro-4-nitro-phenoxy)phenyl]sulfonyl}benzene-carboximidamide] here?
A: −

Q: With `O=[N+]([O-])c1cccc(Cl)c1Oc1ccc(S(=O)(=O)Nc2ccc(F)c(Cl)c2)cc1` [Example 185, N-(3-chloro-4-fluorophenyl)-4-(2-chloro-6-nitrophenoxy)benzenesulfonamide] as the compound, how does the “APC Flag 8 pt” value read?
A: −

Q: With `O=[N+]([O-])c1ccc(Oc2c(Cl)cc(S(=O)(=O)N3CCCC3)cc2Cl)c(Cl)c1` [Example 22, 1-{[3,5-dichloro-4-(2-chloro-4-nitrophenoxy)phenyl]sulfonyl}pyrrolidine] as the compound, how does the “APC Flag 8 pt” value read?
A: −

Q: Which “APC Flag 8 pt” value does the source give for `N#Cc1c(Cl)cccc1Oc1ccc(S(=O)(=O)Nc2ccc(F)c(Cl)c2)cc1` [Example 182, 4-(3-chloro-2-cyanophenoxy)-N-(3-chloro-4-fluorophenyl)benzenesulfonamide] here?
A: −

Q: `CN(c1cccc(Cl)c1)S(=O)(=O)c1cc(Cl)c(Oc2ccc([N+](=O)[O-])cc2Cl)c(Cl)c1` [Compound 153, 3,5-dichloro-4-(2-chloro-4-nitrophenoxy)-N-(3-chlorophenyl)-N-methylbenzenesulfonamide] was tested. Which “APC Flag 8 pt” value did it give?
A: −

Q: With `O=[N+]([O-])c1ccc(Oc2c(Cl)cc(S(=O)(=O)NCC3CCCO3)cc2Cl)c(Cl)c1` (centres unmarked) [Example 121, 3,5-dichloro-4-(2-chloro-4-nitrophenoxy)-N-(tetrahydrofuran-2-ylmethyl)benzene-sulfonamide] as the compound, how does the “APC Flag 8 pt” value read?
A: −

Q: How did the “APC Flag 8 pt” value turn out when `O=[N+]([O-])c1ccc(Oc2c(Cl)cc(S(=O)(=O)Nc3cccc(Cl)c3Cl)cc2Cl)c(Cl)c1` [Example 178, 3,5-dichloro-4-(2-chloro-4-nitrophenoxy)-N-(2,3-dichlorophenyl)benzenesulfonamide] was run?
A: +
